Among the data in PMC8234462, “Novel Cyclophilin Inhibitor Decreases Cell Proliferation and Tumor Growth in Models of Hepatocellular Carcinoma” (Cancers, 2021) are IC50 values, retold here.

One assay concerns Dendritic cells. Briefly: Cytotoxicity, CellTiter Glo. As to conditions: Homo sapiens, Dendritic cell, 168 h, 7 days of treatment, read-out: IC50 (50% reduction in cell viability). It counts as cell-based. The protocol:
The evaluation of the off-target effects of NV651 was performed by ImQuest BioSciences Inc. (Frederick, MD, USA) by analyzing the cytotoxicity in a panel of primary cells. NV651 was evaluated at a concentration of 30 µM and five serial half-logarithmic dilutions in triplicate. The positive control compounds for each cell type were purchased from Sigma-Aldrich (St. Louis, MO, USA) and were as follows: Unstimulated human peripheral blood mononuclear cells (PBMCs), phytohemagglutinin (PHA)-stimulated PBMCs, monocytes/macrophages, dendritic cells, hepatocytes, induced pluripotent stem cell (iPS) neurons: […] AZT, kidney cells (RPTEC): cisplatin and iPS cardiomyocytes: Doxazosin. The isolation was based on Nair, Archer. Briefly, freshly separated PBMCs from one donor were suspended in DPBS at 4 × 10^6 cells per mL and cultured in a T-75 flask. Cells were incubated for 30 min and then washed 5–7 times with DPBS to remove nonadherent cells. Cells were cultured in RPMI 1640 supplemented with 10% FBS, 2-mM L-glutamine, 25-mM HEPES, […], 100-µg/mL streptomycin, 50-ng/mL rhGM-CSF and 50-ng/mL rhIL-4 and incubated for 7 days. After the incubation period, cells were cultured in the same media with the addition of LPS (10 ng/mL) for two days. […]
On the technique in general: In ATP-based viability assays light output follows the ATP content of the culture.

The next assay concerns LIXC-086. The assay is described as follows: Cell proliferation assay: Acumen. Conditions: Homo sapiens, 168 h, 7 days, read-out: Abs IC50 growth inhibition. It counts as cell-based. As to the method: (§1) Compound screening and comparison of the antiproliferative effect of NV651 and sorafenib were performed by Shanghai ChemPartner Co., Ltd. (Shanghai, China). Cells were seeded in a 96-well plate at the following concentrations: LIXC-003 400 cells/well, LIXC-004 1000 cells/well, LIXC-086 5000 cells/well, LIXC-066 1250 cells/well, LIXC-012 2000 cells/well, LIXC-006 1250 cells/well, HEPG2 1000 cells/well, HUH7 2000 cells/well and Hep3B2.1-7-Luc 1000 cells/well. Cells were treated with either sorafenib or NV651 at 0.004, 0.011, 0.034, 0.103, 0.309, 0.926, 2.778, 8.333, 25 µM or an equivalent volume with DMSO.
(§2) After 7 days, cells were trypsinized and collected. Fifty microliters of cell suspension were added to 50 µL of 2-µM Calcein AM (Invitrogen, Cat# C3099, Waltham, MA, USA) diluted in HBSS and placed in a black-walled 96-well plate. The plate was left for 30 min at room temperature, followed by a scan with Acumen eX3.
(§3) Growth inhibition for direct cell counting (%) by Acumen was calculated as:(1) 100−100∗Experimental count−Blank/DMSO count −Blank

In another assay the test system is LIXC-066. Briefly: Cell proliferation assay: Acumen. The class given is cell-based. Conditions: Homo sapiens, 168 h, 7 days, read-out: Abs IC50 growth inhibition. The protocol:
as §1, §2, §3

The subject of a further assay is HEPG2. Briefly: Cell proliferation assay: Acumen. As to conditions: Homo sapiens, 168 h, 7 days, read-out: Abs IC50 growth inhibition. The class given is cell-based. The protocol: as §1, §2, §3
The subject of another assay is LIXC-004. Briefly: Cell proliferation assay: Acumen. It counts as cell-based. Conditions: Homo sapiens, 168 h, 7 days, read-out: Abs IC50 growth inhibition. As to the method: as §1, §2, §3
The subject of the next assay is HUH7. Briefly: Cell proliferation assay: Acumen. As to conditions: Homo sapiens, Huh-7, 168 h, 7 days, read-out: Abs IC50 growth inhibition. The class given is cell-based. As to the method: as §1, §2, §3
The test system of a further assay is LIXC-006. Briefly: Cell proliferation assay: Acumen. It counts as cell-based. As to conditions: Homo sapiens, 168 h, 7 days, read-out: Abs IC50 growth inhibition. The protocol: as §1, §2, §3
The next assay concerns LIXC-003. The assay is described as follows: Cell proliferation assay: Acumen. Conditions: Homo sapiens, 168 h, 7 days, read-out: Abs IC50 growth inhibition. The class given is cell-based. As to the method:
as §1, §2, §3

A further assay has as its system HEP3B2.1-7-Luc. The assay is described as follows: Cell proliferation assay: Acumen. It counts as cell-based. Conditions: Homo sapiens, 168 h, 7 days, read-out: Abs IC50 growth inhibition. As to the method: as §1, §2, §3
Another assay has as its system LIXC-012. The assay is described as follows: Cell proliferation assay: Acumen. As to conditions: Homo sapiens, 168 h, 7 days, read-out: Abs IC50 growth inhibition. The class given is cell-based. The protocol: as §1, §2, §3
Another assay deals with Bone marrow progenitors. Briefly: Cytotoxicity, colony formation. It counts as cell-based, human. As to conditions: 14 days of treatment, colonies counted. The protocol: The evaluation of the off-target effects of NV651 was performed by ImQuest BioSciences Inc. (Frederick, MD, USA) by analyzing the cytotoxicity in a panel of primary cells. NV651 was evaluated at a concentration of 30 µM and five serial half-logarithmic dilutions in triplicate. The positive control compounds for each cell type were purchased from Sigma-Aldrich (St. Louis, MO, USA) and were as follows: Unstimulated human peripheral blood mononuclear cells (PBMCs), phytohemagglutinin (PHA)-stimulated PBMCs, monocytes/macrophages, dendritic cells, hepatocytes, induced pluripotent stem cell (iPS) neurons: […] AZT, kidney cells (RPTEC): cisplatin and iPS cardiomyocytes: Doxazosin. Bone marrow progenitor cells (Invitrogen, Waltham, MA, USA) were suspended in cell culture medium (Iscove-modified Dulbecco medium) containing 15% FBS, 10% giant tumor-conditioned medium (Bone Marrow Plus, Sigma-Aldrich, St. […] Cells (1 × 10^5 cells/well) were seeded in 6-well plates containing NV651 in triplicate. Cells were incubated for 14 days, and colonies (more than 30 cells) were counted.

Another assay concerns iPS cardiomyocytes. The assay is described as follows: Cytotoxicity, CellTiter Glo. It counts as cell-based. Conditions: Homo sapiens, Cardiomyocyte, 72 h, 3 days of treatment, read-out: IC50 (50% reduction in cell viability). As to the method: The evaluation of the off-target effects of NV651 was performed by ImQuest BioSciences Inc. (Frederick, MD, USA) by analyzing the cytotoxicity in a panel of primary cells. NV651 was evaluated at a concentration of 30 µM and five serial half-logarithmic dilutions in triplicate. The positive control compounds for each cell type were purchased from Sigma-Aldrich (St. Louis, MO, USA) and were as follows: Unstimulated human peripheral blood mononuclear cells (PBMCs), phytohemagglutinin (PHA)-stimulated PBMCs, monocytes/macrophages, dendritic cells, hepatocytes, induced pluripotent stem cell (iPS) neurons: […] AZT, kidney cells (RPTEC): cisplatin and iPS cardiomyocytes: Doxazosin. iPS cardiomyocytes (Cellular Dynamics, Madison, WI, USA) were seeded in a 96-well plate precoated with 0.1% gelatin (Sigma-Aldrich, St. Louis, MO, USA) in a plating medium (Cellular dynamics, Madison, WI, USA) at a concentration of 1.5 × 10^4 cells/well. After 48 h of incubation, cells were washed, and NV651 diluted in the maintenance medium (Cellular Dynamics, Madison, WI, USA) was added. After 3 days of incubation, cell viability was measured with CellTiter Glo (Promega, Madison, WI, USA). CellTiter Glo was performed to evaluate cell viability. CellTiter Glo Luminescent Cell Viability Assay (Promega, Madison, WI, USA) was performed according to the manufacturer’s instructions.

A further assay deals with RPTECs. Briefly: Cytotoxicity, CellTiter Glo. The class given is cell-based, human. Conditions: 3 days of treatment, read-out: IC50 (50% reduction in cell viability). The protocol:
The evaluation of the off-target effects of NV651 was performed by ImQuest BioSciences Inc. (Frederick, MD, USA) by analyzing the cytotoxicity in a panel of primary cells. NV651 was evaluated at a concentration of 30 µM and five serial half-logarithmic dilutions in triplicate. The positive control compounds for each cell type were purchased from Sigma-Aldrich (St. Louis, MO, USA) and were as follows: Unstimulated human peripheral blood mononuclear cells (PBMCs), phytohemagglutinin (PHA)-stimulated PBMCs, monocytes/macrophages, dendritic cells, hepatocytes, induced pluripotent stem cell (iPS) neurons: […] AZT, kidney cells (RPTEC): cisplatin and iPS cardiomyocytes: Doxazosin. Human primary renal proximal tubule cells (hRPTEC, Lonza, Basel, Switzerland) were cultured at 1 × 10^4 cells/well in supplemented REGM medium (Lonza, Basel, Switzerland). Following overnight incubation for adherence, cells were treated with NV651 in triplicate. After a 3-day treatment, CellTiter Glo (Promega, Madison, WI, USA) was used. CellTiter Glo was performed to evaluate cell viability. CellTiter Glo Luminescent Cell Viability Assay (Promega, Madison, WI, USA) was performed according to the manufacturer’s instructions.

The next assay addresses CypD (Homo sapiens, UniProt P30405). Briefly: PPIase activity assay (chymotrypsin-coupled). It counts as biochemical. As to conditions: free-cell assay; Cyp equilibrated 1 h at 5 °C with inhibitor; read-out: absolute IC50, PPIase activity CypD. As to the method:
(§4) The PPIase activity of CypA, CypB, CypD and Cyp40 was determined by following the rate of hydrolysis of N-succinyl-Ala-Ala-Pro-Phe-p-nitroanilide by chymotrypsin, a digestive enzyme that only hydrolyzes the trans form of the peptide. Therefore, the hydrolysis of the cis form, the concentration of which is maximized by using a stock dissolved in trifluoroethanol containing 470-mM LiCl, is only possible with the isomerization from the cis to the trans form. […] The reaction was started with the peptide addition, and the change in absorbance was monitored spectrophotometrically at a 6-s interval for 6 min. The blank rates of hydrolysis (in the absence of Cyps) were subtracted from the rates in the presence of Cyps. The initial rates of the enzymatic reaction were analyzed by a first-order regression analysis of the time course of the change in absorbance.

For the next assay, the target named is CypB (Homo sapiens, UniProt P23284). Briefly: PPIase activity assay (chymotrypsin-coupled). It counts as biochemical. As to the method: as §4
Chain of CypB (P23284 34-216): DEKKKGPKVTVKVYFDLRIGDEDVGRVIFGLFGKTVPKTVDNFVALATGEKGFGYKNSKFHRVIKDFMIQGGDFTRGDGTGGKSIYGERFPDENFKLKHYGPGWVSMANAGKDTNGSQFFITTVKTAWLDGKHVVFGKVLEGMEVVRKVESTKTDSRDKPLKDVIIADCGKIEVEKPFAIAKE
Another assay has as its target Cyp40 (Homo sapiens, UniProt Q08752). The assay is described as follows: PPIase activity assay (chymotrypsin-coupled). The class given is biochemical. As to conditions: free-cell assay; Cyp equilibrated 1 h at 5 °C with inhibitor; read-out: absolute IC50, PPIase activity Cyp40. As to the method:
as §4

Chain of Cyp40 (Q08752 whole entry): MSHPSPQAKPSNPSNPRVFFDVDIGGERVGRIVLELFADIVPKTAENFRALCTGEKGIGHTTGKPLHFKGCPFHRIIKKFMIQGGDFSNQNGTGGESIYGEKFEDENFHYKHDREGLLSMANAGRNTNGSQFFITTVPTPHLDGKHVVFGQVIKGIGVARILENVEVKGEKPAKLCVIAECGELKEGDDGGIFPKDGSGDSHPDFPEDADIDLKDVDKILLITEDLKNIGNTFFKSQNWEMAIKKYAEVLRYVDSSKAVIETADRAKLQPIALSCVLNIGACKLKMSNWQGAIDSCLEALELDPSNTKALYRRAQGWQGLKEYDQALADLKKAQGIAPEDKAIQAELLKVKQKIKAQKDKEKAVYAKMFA
Chain of CypD (P30405 30-207): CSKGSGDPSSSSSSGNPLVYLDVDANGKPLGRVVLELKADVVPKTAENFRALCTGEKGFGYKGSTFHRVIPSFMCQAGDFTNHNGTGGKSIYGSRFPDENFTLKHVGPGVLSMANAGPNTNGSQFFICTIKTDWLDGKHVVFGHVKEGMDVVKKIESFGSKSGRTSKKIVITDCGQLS

What is called IC50 is the concentration that gives 50% inhibition. In the case of `CN[C@@H]1C[C@H]2O[C@@](C)([C@@H]1OC)n1c3ccccc3c3c4c(c5c6ccccc6n2c5c31)C(=O)NC4` [Staurosporine, reference compound], the half-maximal inhibitory concentration (IC50) in the assay with Dendritic cells worked out at 9 nM.

As for `CNC(=O)c1cc(Oc2ccc(NC(=O)Nc3ccc(Cl)c(C(F)(F)F)c3)cc2)ccn1` [Sorafenib, reference compound], the IC50 in the assay on LIXC-086 is 1900 nM; in the assay on LIXC-066, 1650 nM; in the assay with HEPG2, 2330 nM; in the assay with LIXC-004, 1450 nM; in the assay on HUH7 it was 739 nM; in the assay with LIXC-006 it was 3.35 µM. Also, the values for the IC50 in the assay on LIXC-003, in the assay on HEP3B2.1-7-Luc and with LIXC-012 were 3 nM, 3.9 µM and 1250 nM, respectively.

For the molecule `Cc1cn([C@H]2C[C@H](N=[N+]=[N-])[C@@H](CO)O2)c(=O)[nH]c1=O` [AZT, reference compound], in the assay with Bone marrow progenitors, it took 890 nM to reach half-maximal inhibition (IC50).

In the case of `COc1cc2nc(N3CCN(C(=O)C4COc5ccccc5O4)CC3)nc(N)c2cc1OC` (stereo not shown) [doxazosin, reference compound], the IC50 in the assay with iPS cardiomyocytes was 39.8 µM.

`N.N.[Cl][Pt][Cl]` [cisplatin, reference compound]: in the assay on RPTECs, the IC50 amounted to 9 nM.

Consider `CC[C@H]1C[C@H](C)[C@@]2(NC1=O)O[C@@H](C[C@H](O)[C@@H](C)CC/C=C/C=C(\C)[C@@H]1C/C=C/C=C/[C@H](O)[C@H](C)[C@@H](O)[C@@H](CCC(C)=O)C(=O)N[C@@H](C(C)C)C(=O)N[C@@H](Cc3cccc(O)c3)C(=O)N3CCC[C@H](N3)C(=O)O1)[C@H](C)[C@H](O)[C@@H]2C` [SfA, Sanglifehrin A, reference compound], for which the IC50 was 5.25 nM on CypD, 5.12 nM against CypB and 5.62 nM on Cyp40.
